From patent US4918172A, “Anthracycline antibiotics” (Sanraku Incorporated, priority 1987, dated 1990)
≈ marks a conversion by molar mass, not a printed value.

Tests used:
Assay type in all cases: cell-based
[1] = system: mouse leukemia L1210 culture cells; assay: inhibition of propagation (50% growth inhibiting concentration) of mouse leukemia L1210 culture cells; details: read-out: 50% Inhibiting Concentration (IC50) Cell Growth Inhibition
Description: (§1) Activity of inhibition propagation of mouse leukemia L1210 culture cells and of inhibition synthesis of nucleic acid in the cells:
L1210 cells (5×10^4 /ml) were inoculated in RPMI 1640 medium (Rose Wellberg Laboratory) containing 20% calf serum, and the compound of the present invention (as indicated in Table 1 below) was added thereto in a concentration of from 0.0005 to 50.0 μg/ml. Thus the cells were incubated in a CO2 incubator at 37° C. for 48 hours, and the 50% growth inhibiting concentration relative to the control group was obtained. The compound of the present invention was dissolved in M/50 acetic acid (pH 3.0) in a concentration of […] and then diluted with Dulbecco PBS (-) (manufactured by Nissui Pharmaceutical Co.), before being added to the medium.

[2] = system: mouse leukemia L1210 culture cells; assay: inhibition of DNA synthesis in L1210 culture cells (14C-thymidine uptake); details: 10% calf serum RPMI 1640, label added 15 minutes after compound, further 60 minutes at 37° C., read-out: 50% Inhibiting Concentration (IC50) DNA Synthesis Inhibition
Description: as §1
(§2) Then a solution of the compound of the present invention prepared as mentioned above was added to the medium in a different concentration. 15 minutes after the addition, ^14 C-uridine (0.05 μCi/ml) or ^14 C-thymidine (0.05 μCi/ml) was added and the medium was further incubated at 37° C. for an additional 60 minutes. A cold 10% trichloroacetic acid (TCA) was added to the reaction solution so that the reaction was stopped and the acid-insoluble substance was precipitated. This was washed twice with a cold 5% TCA and then dissolved in formic acid. Then the radioactivity of the resulting solution was measured, and the 50% uptake inhibiting concentration was obtained from the radioactivity uptake ratio relative to the control group.

[3] = system: mouse leukemia L1210 culture cells; assay: inhibition of RNA synthesis in L1210 culture cells (14C-uridine uptake); details: 10% calf serum RPMI 1640, label added 15 minutes after compound, further 60 minutes at 37° C., read-out: 50% Inhibiting Concentration (IC50) RNA Synthesis Inhibition
Description: as §1, §2

[4] = L1210 cells, RPMI 1640 with 20% calf serum, 37° C., 48 hours

Row | Compound | IC50 ([1]; L1210, 48 h) [µg/mL] | IC50 [2] [µg/mL] | IC50 [3] [µg/mL] | IC50 [1, 4] [µg/mL]
1 | CCC1(O)CC(OC2CC(N)C(OC3CC(O)C(O)C(C)O3)C(C)O2)c2c(O)c3c(c(O)c2C1O)C(=O)c1cccc(O)c1C3=O (stereo not drawn) [CG15B] | 0.04 (≈ 0.062 µM) | 4.6 (≈ 7.12 µM) | 2.5 (≈ 3.87 µM) | –
2 | CCC1(O)CC(OC2CC(N)C(OC3CCC(O)C(C)O3)C(C)O2)c2c(O)c3c(c(O)c2C1C(=O)OC)C(=O)c1cccc(OC)c1C3=O (stereo not drawn) [CG19A] | – | 4.8 (≈ 7 µM) | 1.3 (≈ 1.9 µM) | 1 (≈ 1.46 µM)
3 | CCC1(O)CC(OC2CC(N)C(OC3CC(O)C(O)C(C)O3)C(C)O2)c2c(O)c3c(c(O)c2C1C(=O)OC)C(=O)c1cccc(OC)c1C3=O (stereo not drawn) [CG19B] | – | 10 (≈ 14.3 µM) | 10 (≈ 14.3 µM) | –
4 | CC1OC(OC2C(N)CC(OC3CC(O)(C(C)O)Cc4c(O)c5c(c(O)c43)C(=O)c3c(O)cccc3C5=O)OC2C)CCC1O (stereo not drawn) [CG20A] | – | 1.2 (≈ 1.91 µM) | 1.2 (≈ 1.91 µM) | –
5 | CCC1(O)CC(OC2CC(N(C)C)C(OC3CCC(O)C(C)O3)C(C)O2)c2c(O)c3c(c(O)c2C1O)C(=O)c1cccc(O)c1C3=O (stereo not drawn) [CG21A] | – | 0.38 (≈ 0.578 µM) | 0.18 (≈ 0.274 µM) | –
6 | CCC1(O)CC(OC2CC(NC)C(OC3CCC(O)C(C)O3)C(C)O2)c2c(O)c3c(c(O)c2C1O)C(=O)c1cccc(O)c1C3=O (stereo not drawn) [CG22A] | – | 0.87 (≈ 1.35 µM) | 1.4 (≈ 2.17 µM) | –
7 | CCC1(O)CC(OC2CC(NC)C(OC3CC(O)C(O)C(C)O3)C(C)O2)c2c(O)c3c(c(O)c2C1O)C(=O)c1cccc(O)c1C3=O (stereo not drawn) [CG22B] | – | 5 (≈ 7.58 µM) | 10 (≈ 15.2 µM) | –
8 | CCC1(O)CC(OC2CC(N)C(OC3CCC(O)C(C)O3)C(C)O2)c2c(O)c3c(c(O)c2C1O)C(=O)c1cccc(O)c1C3=O (stereo not drawn) [CG15A] | – | 1.2 (≈ 1.91 µM) | 3 (≈ 4.76 µM) | 0.002 (≈ 0.00318 µM)
9 | CCC1(O)CC(OC2CC(N)C(OC3CC(O)C(O)C(C)O3)C(C)O2)c2c(O)c3c(c(O)c2C1C(=O)OC)C(=O)c1cccc(O)c1C3=O (stereo not drawn) [CG17B] | – | 10 (≈ 14.5 µM) | 2.3 (≈ 3.34 µM) | 1.4 (≈ 2.04 µM)
10 | CC1OC(OC2C(N)CC(OC3CC(O)(C(C)O)Cc4c(O)c5c(c(O)c43)C(=O)c3c(O)cccc3C5=O)OC2C)CC(O)C1O (stereo not drawn) [CG20B] | – | 10 (≈ 15.5 µM) | 5 (≈ 7.74 µM) | –
11 | CCC1(O)CC(OC2CC(N)C(OC3CCC(O)C(C)O3)C(C)O2)c2c(O)c3c(c(O)c2C1C(=O)OC)C(=O)c1cccc(O)c1C3=O (stereo not drawn) [CG17A] | – | 3.3 (≈ 4.91 µM) | 1.1 (≈ 1.64 µM) | 0.5 (≈ 0.744 µM)
